What was measured:
[1] = system: rabbits; conditions: 0.15 mg/ml eye drops 2 times per day for approximately 60 days
Experimental: Treatment using 0.15 mg/ml copper sulfate pentahydrate in an ophthalmic vehicle is administered at approximately 6 weeks of age to rabbits. Eyedrops are administered 2 times per day for approximately 60 days. Refractive error is measured by an ophthalmologist prior to treatment on day 1 and at subsequent time-points (e.g., 14 days, 27 days, 44 days, and 62 days after the beginning of treatment) depicted in FIG. 3. […] Stable refractive errors are typically obtained after 15 minutes when there is no pupil response. FIG. 3 presents refractive error measurements for the test subjects in each eye.

[2] = system: LNL crosslinks in rabbit cornea; conditions: rabbits; 0.15 mg/ml eye drops twice a day for 6 weeks; LC-MS
Experimental: After six weeks each group of corneas is dissected, weighed and used for LNL analysis. Samples are reduced with NaBH4 at room temperature then washed twice with water, dried, and hydrolyzed with 6N
HCl in vacuo for 18 hours at 110° C. […] The hydrolysates are dried to evaporate HCL, reconstituted with H2O, and re-dried to remove residual HCl. Post hydrolysis, cross-link enrichment is carried out using a cellulose mini-column method. Samples are then provided for LNL analysis by mass spectroscopy (LC/MS).
To perform liquid chromatography/mass spectroscopy (LC/MS), 1 μL of 100 μg/mL d9-Lysine is added to all samples as an internal standard. A calibration curve is created using serial dilution. Semi-quantitative mass spectral analysis is performed using a Sciex 6500 Q-Trap (Sciex, Farmington, MA). A helicon iHILIC-Fusion 2.1×100 mm column (Umeå, Sweden) is used for chromatography using 10 mM NH4OAc (Buffer A) and ACN (Buffer B). LC/MS is performed in the positive mode with a TurboIon source using optimized source conditions. Quantitative data analysis is conducted using Sciex MultiQuant software.

[3] = system: guinea pigs; assay: Refractive error by streak retinoscopy in guinea pigs, 60-day atropine eye drop treatment; format: in vivo; conditions: .001% eye drops 2 times per day for approximately 60 days
Experimental: Treatment using .001% atropine sulfate monohydrate eye drops is administered at approximately 1 week of age to guinea pigs. The eye drops are administered 2 times per day for approximately 60 days. Refractive error is measured by an ophthalmologist prior to treatment on day 1 and at subsequent time-points (e.g., 14 days, 27 days, 44 days, and 62 days after the beginning of treatment) depicted in FIGS. 1A-1C. […] Stable refractive errors are typically obtained after 15 minutes when there is no pupil response.

[4] = system: cornea; conditions: rabbits
From the text: The Ocular Response Analyzer (ORA; Reichert, Inc, Buffalo, N.Y.) is a commercially available noncontact tonometer that also assesses the viscoelastic nature of the cornea with bidirectional detection of applanation events to allow in vivo measurements of corneal biomechanical response parameters under air puff loading 42. The system includes an infrared emitter and detector aligned such that applanation produces a spike on the detector with a mirror like reflection from the flattened corneal surface.
Two applanation pressure measurements are reported by the ORA: one while the cornea moves inward, reaching first applanation, at pressure P1, and the other after the cornea recovers from a slight concavity as it moves outward passing through a second applanation at pressure P2. Therefore, these two values, P1 and P2, indicate the pressures associated with a flattened cornea during the loading and unloading cycle, with P2<P1 for a valid measurement. The difference between P1 and P2 is termed corneal hysteresis (CH).
A greater value for Peak 1 or Peak 2 indicates a larger area of applanation which is associated with a stiffer response. Thus, for the current study the
ORA pressure and applanation signals were analyzed using custom software to determine the magnitudes of Peak 1 and Peak 2. ORA measurements were assessed at baseline and every week for 6-8 weeks on the same set of rabbits described in 2.4.b which included 4 groups Sol A, Sol B, and vehicle and no drops. An increase in Peak 1 and Peak 2 can be present after stiffening; therefore, one-tailed t-tests were used for statistical analysis to compare groups.
The times at 3, 4, 5, and 6 weeks for the combined AB (treatment Sol A and treatment Sol B) treatment group were averaged for comparison against no therapy and vehicle. Peak 1 and Peak 2 were compared to both controls.

## O.O.O.O.O.O=S(=O)([O-])[O-].[Cu+2] [copper sulfate pentahydrate]
[1]
  Reduction of myopic progression in the treatment eye compared to control: approximately 63%
[2]
  LNL crosslinks in treated rabbit cornea compared to control (no treatment) and vehicle group: significant increases

## CN1[C@@H]2CC[C@H]1CC(OC(=O)C(CO)c1ccccc1)C2.CN1[C@@H]2CC[C@H]1CC(OC(=O)C(CO)c1ccccc1)C2.O.O=S(=O)(O)O (some centres unmarked) [Atropine, atropine sulfate monohydrate]
[3]
  Progression of myopia (refractive error): Slows Progression of Myopia

## O=S(=O)([O-])[O-].[Cu+2] [Copper sulfate]
[4]; ORA
  Corneal stiffening in vivo as measured by waveform response to air puff deformation: generates stiffening in vivo
[4]; weeks 3, 4, 5 and 6 averaged, combined Sol A and Sol B, one-tailed t-test p=0.0244
  Peak 1, treated group AB versus no therapy: significantly greater than no therapy
[4]; weeks 3, 4, 5 and 6 averaged, combined Sol A and Sol B, p<0.0001
  Peak 2, treated group AB versus vehicle: significantly greater
[4]; weeks 3, 4, 5 and 6 averaged, combined Sol A and Sol B, p=0.0098
  Peak 2, treated group AB versus no therapy: significantly greater than no therapy
[4]; weeks 3, 4, 5 and 6 averaged, combined Sol A and Sol B, p=0.0763
  Peak 1, treated group AB versus vehicle: no substantial difference
